The results in this text go back to ChEMBL document CHEMBL1145321, “Evaluation of indenoisoquinoline topoisomerase I inhibitors using a hollow fiber assay” (2006).

The experiment concerns Panel NCI-60 (60 carcinoma cell lines). The experiment is described as follows: Antiproliferative activity against human NCI60 cell line measured as mean graph midpoint. Type of experiment: functional.
Compound `COc1cc2c3c(n(C)c(=O)c2cc1OC)-c1cc2c(cc1/C3=C/CCCI)OCO2` had an Activity of 8.49 µM.

`Cl.NCCCn1c2c(c3ccccc3c1=O)C(=O)c1cc3c(cc1-2)OCO3`: the Activity was 0.251 µM.

On to `O=C1c2cc3c(cc2-c2c1c1ccccc1c(=O)n2CCCNCCCO)OCO3`, for which the Activity worked out at 15.5 µM.

`COc1cc2c3c(n(Cc4ccccc4)c(=O)c2cc1OC)-c1cc2c(cc1C3=O)OCO2`: the Activity is 41.6 µM.

With `O=C1c2ccccc2-c2c1c1ccccc1c(=O)n2CCCCCO`, the Activity amounted to 14.4 µM.

The compound `Cn1c2c(c3ccccc3c1=O)C(=O)c1cc3c(cc1-2)OCO3` came in with an Activity of 45 µM.

Turning to `COc1cc2c3c(n(CCN)c(=O)c2cc1OC)-c1cc2c(cc1C3=O)OCO2.Cl`, the Activity is 0.338 µM.

Turning to `Cl.NCCCCn1c2c(c3ccccc3c1=O)C(=O)c1ccccc1-2`, the Activity turned out to be 0.156 µM.

`COc1cc2c(cc1[N+](=O)[O-])C(=O)N(CCCBr)[C@@H]1c3cc4c(cc3C(=O)[C@H]21)OCO4` showed an Activity of 0.016 µM.

Turning to `COc1cc2c(cc1OC)[C@H]1C(=O)c3cc4c(cc3[C@H]1N(CCCBr)C2=O)OCO4`, the Activity was 0.69 µM.

In turn, `COc1cc2c(cc1OC)[C@H]1C(=O)c3cc4c(cc3[C@H]1N(Cc1ccccc1)C2=O)OCO4` gave an Activity of 1.18 µM.

In turn, `[N-]=[N+]=NCCCn1c2c(c3ccc([N+](=O)[O-])cc3c1=O)C(=O)c1cc3c(cc1-2)OCO3` came in with an Activity of 0.098 µM.

`Cl.NCCCn1c2c(c3ccccc3c1=O)C(=O)c1ccccc1-2`: the Activity was determined as 0.315 µM.

Compound `CCCCn1c2c(c3cc(OC)c(OC)cc3c1=O)C(=O)c1cc3c(cc1-2)OCO3` came in with an Activity of 41.6 µM.

On to `COc1cc2c3c(n(CCCNCCN)c(=O)c2cc1OC)-c1cc2c(cc1C3=O)OCO2.Cl.Cl`, for which the Activity turned out to be 0.347 µM.

Take `COc1cc2c3c(n(CCCCO)c(=O)c2cc1OC)-c1cc2c(cc1C3=O)OCO2`: the Activity is 3.2 µM.

In turn, `Cl.c1c2c(cc3c1OCO3)-c1ncc3cc4c(cc3c1C2)OCO4` registered an Activity of 0.271 µM.

In the case of `COc1cc2c3c(n(CCCN)c(=O)c2cc1OC)-c1cc2c(cc1C3=O)OCO2.Cl`, the Activity was determined as 0.16 µM.

The compound `COc1cc2c3c(n(CCCNCCNCCN)c(=O)c2cc1OC)-c1cc2c(cc1C3=O)OCO2.Cl` yielded an Activity of 2.4 µM.

`Cl.O=C1c2ccccc2-c2c1c1ccccc1c(=O)n2CCCNCCCn1ccnc1` registered an Activity of 1.01 µM.

`Cl.NCCCn1c2c(c3ccc([N+](=O)[O-])cc3c1=O)C(=O)c1ccccc1-2` yielded an Activity of 0.146 µM.

For the compound `COc1cc2c3c(n(C)c(=O)c2cc1OC)-c1cc2c(cc1C3=O)OCO2`, the Activity came to 20 µM.

On to `CC[C@@]1(O)C(=O)OCc2c1cc1n(c2=O)Cc2cc3ccccc3nc2-1` [CAMPTOTHECIN], for which the Activity was 0.0405 µM.

`CC(=O)O[C@H]1C(=O)[C@@]2(C)[C@H]([C@H](OC(=O)c3ccccc3)[C@]3(O)C[C@H](OC(=O)[C@H](O)[C@@H](NC(=O)c4ccccc4)c4ccccc4)C(C)=C1C3(C)C)[C@]1(OC(C)=O)CO[C@@H]1C[C@@H]2O` [PACLITAXEL] came in with an Activity of 0.0253 µM.

Regarding `CC[C@]1(O)C[C@@H]2CN(CCc3c([nH]c4ccccc34)[C@@](C(=O)OC)(c3cc4c(cc3OC)N(C)[C@H]3[C@@](O)(C(=O)OC)[C@H](OC(C)=O)[C@]5(CC)C=CCN6CC[C@]43[C@@H]65)C2)C1.O=S(=O)(O)O` [VINBLASTINE SULFATE], the Activity came to 0.025 µM.
